Data set [1] concerns the target Serine/threonine-protein kinase Sgk3 (Homo sapiens) (UniProt Q96BR1). Briefly: Inhibition of recombinant human SGK3 (119 to end residues) at 1 uM using GRPRTSSFAEGKK as substrate after 40 mins in presence of [gamma-33P]ATP by scintillation counting method.
In data set [2] the target is Platelet-derived growth factor receptor alpha (Homo sapiens) (UniProt P16234). Briefly: Inhibition of recombinant human PDGFRalpha (550 to end residues) at 1 uM using poly(Glu,Tyr) 4:1 as substrate after 40 mins in presence of [gamma-33P]ATP by scintillation counting method.
Sequence of Platelet-derived growth factor receptor alpha (Homo sapiens) (P16234 whole entry, the tested form may be a part): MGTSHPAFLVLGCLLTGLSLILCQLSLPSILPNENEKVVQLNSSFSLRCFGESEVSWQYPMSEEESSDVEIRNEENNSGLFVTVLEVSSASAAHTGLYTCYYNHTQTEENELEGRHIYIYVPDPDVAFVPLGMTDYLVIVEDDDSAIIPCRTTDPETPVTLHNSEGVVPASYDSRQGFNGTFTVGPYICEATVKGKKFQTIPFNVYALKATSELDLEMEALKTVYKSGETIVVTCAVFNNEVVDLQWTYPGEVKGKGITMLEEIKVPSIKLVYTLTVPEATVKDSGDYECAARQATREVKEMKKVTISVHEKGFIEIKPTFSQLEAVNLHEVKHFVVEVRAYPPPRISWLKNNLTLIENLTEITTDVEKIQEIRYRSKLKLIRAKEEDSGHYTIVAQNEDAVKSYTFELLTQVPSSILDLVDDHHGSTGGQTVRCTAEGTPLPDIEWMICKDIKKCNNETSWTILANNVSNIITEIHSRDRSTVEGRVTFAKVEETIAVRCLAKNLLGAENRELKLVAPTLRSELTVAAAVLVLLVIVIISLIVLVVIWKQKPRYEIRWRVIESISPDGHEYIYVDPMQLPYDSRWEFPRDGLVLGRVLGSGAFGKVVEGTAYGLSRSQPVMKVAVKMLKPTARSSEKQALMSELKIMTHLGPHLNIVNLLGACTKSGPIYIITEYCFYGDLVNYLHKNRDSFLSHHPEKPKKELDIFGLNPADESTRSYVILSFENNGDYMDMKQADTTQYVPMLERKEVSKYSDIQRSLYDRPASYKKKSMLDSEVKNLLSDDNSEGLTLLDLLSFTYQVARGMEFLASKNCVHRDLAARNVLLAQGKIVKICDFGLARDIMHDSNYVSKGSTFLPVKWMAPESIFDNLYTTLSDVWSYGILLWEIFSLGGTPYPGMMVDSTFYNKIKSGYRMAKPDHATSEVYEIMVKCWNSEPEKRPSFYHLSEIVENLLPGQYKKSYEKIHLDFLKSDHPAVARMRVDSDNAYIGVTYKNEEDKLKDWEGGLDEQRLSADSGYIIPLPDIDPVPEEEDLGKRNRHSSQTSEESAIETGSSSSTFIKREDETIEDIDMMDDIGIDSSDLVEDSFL
The target in data set [3] is CDK4/Cyclin D3 (Homo sapiens) (UniProt P11802+P30281). Briefly: Inhibition of recombinant full-length human CDK4/Cyclin D3 at 1 uM using Rb fragment as substrate after 40 mins in presence of [gamma-33P]ATP by scintillation counting method. The data set is classed as protein-complex assay.
The target in data set [4] is Serine/threonine-protein kinase N1 (Homo sapiens) (UniProt Q16512). Briefly: Inhibition of recombinant human PRK1 (498 to end residues) at 1 uM using KKLNRTLSFAEPG as substrate after 40 mins in presence of [gamma-33P]ATP by scintillation counting method.
Sequence of Serine/threonine-protein kinase N1 (Homo sapiens) (Q16512 2-942 limits assumed): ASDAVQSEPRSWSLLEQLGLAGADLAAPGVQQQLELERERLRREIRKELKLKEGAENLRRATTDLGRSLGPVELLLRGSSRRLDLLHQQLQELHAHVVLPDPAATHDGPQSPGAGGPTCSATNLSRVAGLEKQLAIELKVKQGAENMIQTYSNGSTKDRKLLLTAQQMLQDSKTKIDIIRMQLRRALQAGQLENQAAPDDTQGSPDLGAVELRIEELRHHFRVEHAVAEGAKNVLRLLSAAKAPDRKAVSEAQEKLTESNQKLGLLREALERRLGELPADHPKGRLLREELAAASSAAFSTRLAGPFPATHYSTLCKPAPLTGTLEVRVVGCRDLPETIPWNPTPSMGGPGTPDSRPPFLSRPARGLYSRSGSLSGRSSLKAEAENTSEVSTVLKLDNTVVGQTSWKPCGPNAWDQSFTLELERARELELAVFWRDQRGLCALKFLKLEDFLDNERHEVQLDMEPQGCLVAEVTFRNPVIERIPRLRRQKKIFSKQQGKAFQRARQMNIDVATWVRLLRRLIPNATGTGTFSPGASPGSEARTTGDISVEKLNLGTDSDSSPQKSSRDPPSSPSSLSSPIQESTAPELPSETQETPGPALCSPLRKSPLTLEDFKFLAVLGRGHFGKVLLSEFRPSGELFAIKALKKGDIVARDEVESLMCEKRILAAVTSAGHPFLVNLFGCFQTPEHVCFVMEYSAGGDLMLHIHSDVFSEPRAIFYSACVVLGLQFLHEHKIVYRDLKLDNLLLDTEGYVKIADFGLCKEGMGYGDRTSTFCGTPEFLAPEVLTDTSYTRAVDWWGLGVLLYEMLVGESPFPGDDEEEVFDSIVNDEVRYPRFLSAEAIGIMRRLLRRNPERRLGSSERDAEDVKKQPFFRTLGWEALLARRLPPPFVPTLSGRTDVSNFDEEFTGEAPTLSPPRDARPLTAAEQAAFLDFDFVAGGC
Data set [5] concerns the target Serine/threonine-protein kinase 32C (Homo sapiens) (UniProt Q86UX6). Briefly: Inhibition of recombinant full-length human STK32C at 1 uM using casein as substrate after 120 mins in presence of [gamma-33P]ATP by scintillation counting method.
For data set [6], the system named is Receptor-type tyrosine-protein kinase FLT3 (Homo sapiens), P36888 [D835Y]. Briefly: Inhibition of recombinant human Flt3 D835Y mutant (564 to end residues) at 1 uM using EAIYAAPFAKKK as substrate after 40 mins in presence of [gamma-33P]ATP by scintillation counting method.
Data set [7] concerns the target Serine/threonine-protein kinase PRP4 homolog (Homo sapiens) (UniProt Q13523). Briefly: Inhibition of recombinant human PRP4 (663 to end residues) at 1 uM using casein as substrate after 120 mins in presence of [gamma-33P]ATP by scintillation counting method.
The target in data set [8] is DNA-dependent protein kinase catalytic subunit (Homo sapiens) (UniProt P78527). Briefly: Inhibition of recombinant full-length human DNA-PK at 1 uM using GST-cMyc-p53 as substrate after 40 mins in presence of [gamma-33P]ATP by scintillation counting method.
Data set [9] has as its target Dual specificity protein kinase CLK1 (Homo sapiens) (UniProt P49759). Briefly: Inhibition of recombinant human CLK1 (130 to end residues) at 1 uM using ERMRPRKRQGSVRRRV as substrate after 40 mins in presence of [gamma-33P]ATP by scintillation counting method.
Data set [10] concerns the target Serine/threonine-protein kinase 24 (Homo sapiens) (UniProt Q9Y6E0). Briefly: Inhibition of recombinant human MST3 (1 to 304 residues) at 1 uM using ERMRPRKRQGSVRRRV as substrate after 40 mins in presence of [gamma-33P]ATP by scintillation counting method.
The target in data set [11] is Tyrosine-protein kinase JAK2 (Homo sapiens) (UniProt O60674). Briefly: Inhibition of recombinant human JAK2 (808 to end residues) at 1 uM using KTFCGTPEYLAPEVRREPRILSEEEQEMFRDFDYIADWC as substrate after 40 mins in presence of [gamma-33P]ATP by scintillation counting method.
In data set [12] the target is Serine/threonine-protein kinase D2 (Homo sapiens) (UniProt Q9BZL6). Briefly: Inhibition of recombinant full-length human PKD2 at 1 uM using KKLNRTLSVA as substrate after 40 mins in presence of [gamma-33P]ATP by scintillation counting method.
Data set [13] has as its target 5'-AMP-activated protein kinase catalytic subunit alpha-2 (Homo sapiens) (UniProt P54646). Briefly: Inhibition of recombinant full-length human AMPKalpha2 at 1 uM using AMARAASAAALARRR as substrate after 40 mins in presence of [gamma-33P]ATP by scintillation counting method.
Data set [14] has as its target Mitogen-activated protein kinase 10 (Homo sapiens) (UniProt P53779). Briefly: Inhibition of recombinant full-length human JNK3 at 1 uM using peptide as substrate after 40 mins in presence of [gamma-33P]ATP by scintillation counting method.
Data set [15] addresses Dual specificity mitogen-activated protein kinase kinase 6 (Homo sapiens) (UniProt P52564). Briefly: Inhibition of recombinant human MKK6 (4 to end residues) at 1 uM using inactive SAPK2a as substrate after 40 mins in presence of [gamma-33P]ATP by scintillation counting method.
For data set [16], the target named is Receptor-interacting serine/threonine-protein kinase 2 (Homo sapiens) (UniProt O43353). Briefly: Inhibition of recombinant human RIPK2 (1 to 299 residues) at 1 uM using myelin basic protein as substrate after 120 mins in presence of [gamma-33P]ATP by scintillation counting method.
Data set [17] concerns the target Calcium/calmodulin-dependent protein kinase kinase 2 (Homo sapiens) (UniProt Q96RR4). Briefly: Inhibition of recombinant full-length human CAMKK2 at 1 uM using […] after 40 mins in presence of [gamma-33P]ATP by scintillation counting method.
Data set [18] in a line: Half life in mouse at 10 mg/kg, po. The data set is classed as ADME, organism-based. To be noted: in vivo.
The target in data set [19] is CDK6/cyclin D3 (Homo sapiens) (UniProt P30281+Q00534). Briefly: Inhibition of recombinant full-length human CDK6/Cyclin D3 at 1 uM using histone H1 as substrate after 40 mins in presence of [gamma-33P]ATP by scintillation counting method. Type of data set: protein-complex assay.
Data set [20] has as its target SNF-related serine/threonine-protein kinase (Homo sapiens) (UniProt Q9NRH2). Briefly: Inhibition of recombinant human SNRK (1 to 505 residues) at 1 uM using KKLRRTLSFAEPG as substrate after 40 mins in presence of [gamma-33P]ATP by scintillation counting method.
The target in data set [21] is Insulin receptor-related protein (Homo sapiens) (UniProt P14616). Briefly: Inhibition of recombinant human IRR (943 to 1266 residues) at 1 uM using myelin basic protein as substrate after 40 mins in presence of [gamma-33P]ATP by scintillation counting method.
The target of data set [22] is Wee1-like protein kinase (Homo sapiens) (UniProt P30291). Briefly: Inhibition of recombinant human Wee1 (214 to end residues) at 1 uM using LSNLYHQGKFLQTFCGSPLYRRR as substrate after 40 mins in presence of [gamma-33P]ATP by scintillation counting method.
Sequence of Wee1-like protein kinase (Homo sapiens) (P30291 whole entry, looked up): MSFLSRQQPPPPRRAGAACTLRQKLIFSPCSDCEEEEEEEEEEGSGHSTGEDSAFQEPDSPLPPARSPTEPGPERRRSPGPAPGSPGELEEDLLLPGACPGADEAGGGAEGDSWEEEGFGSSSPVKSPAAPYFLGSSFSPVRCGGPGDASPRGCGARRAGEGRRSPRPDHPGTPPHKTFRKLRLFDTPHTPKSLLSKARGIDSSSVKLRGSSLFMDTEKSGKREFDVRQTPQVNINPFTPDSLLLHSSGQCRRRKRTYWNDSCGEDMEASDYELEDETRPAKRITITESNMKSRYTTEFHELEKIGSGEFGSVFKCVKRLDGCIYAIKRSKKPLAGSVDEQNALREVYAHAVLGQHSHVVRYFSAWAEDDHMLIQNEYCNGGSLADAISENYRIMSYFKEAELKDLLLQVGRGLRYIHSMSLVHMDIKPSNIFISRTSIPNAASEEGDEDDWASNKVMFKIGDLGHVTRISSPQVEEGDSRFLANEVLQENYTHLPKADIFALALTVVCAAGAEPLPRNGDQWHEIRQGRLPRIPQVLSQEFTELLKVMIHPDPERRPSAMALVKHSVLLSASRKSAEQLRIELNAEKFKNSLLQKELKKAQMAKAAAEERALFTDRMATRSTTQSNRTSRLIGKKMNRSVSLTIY
The target of data set [23] is PI3K p110 alpha/p85 alpha (Mus musculus) (UniProt P26450+P42337). Briefly: Inhibition of recombinant full-length mouse p110a E545K mutant/p85a at 1 uM using phosphatidylinositol 4,5-bisphosphate as substrate after 40 mins in presence of [gamma-33P]ATP by scintillation counting method. The data set is classed as protein-complex assay.
Data set [24] has as its target Serine/threonine-protein kinase PLK2 (Homo sapiens) (UniProt Q9NYY3). Briefly: Inhibition of recombinant human Snk (65 to 409 residues) at 1 uM using casein as substrate after 40 mins in presence of [gamma-33P]ATP by scintillation counting method.

Each structure is given as a SMILES string.

The source of these data is ChEMBL document CHEMBL4190187, “Discovery of pyrazolopyrimidine derivatives as novel inhibitors of ataxia telangiectasia and rad3 related protein (ATR)” (Bioorg Med Chem Lett, 2017).

Sequence of Serine/threonine-protein kinase PRP4 homolog (Homo sapiens) (Q13523 whole entry): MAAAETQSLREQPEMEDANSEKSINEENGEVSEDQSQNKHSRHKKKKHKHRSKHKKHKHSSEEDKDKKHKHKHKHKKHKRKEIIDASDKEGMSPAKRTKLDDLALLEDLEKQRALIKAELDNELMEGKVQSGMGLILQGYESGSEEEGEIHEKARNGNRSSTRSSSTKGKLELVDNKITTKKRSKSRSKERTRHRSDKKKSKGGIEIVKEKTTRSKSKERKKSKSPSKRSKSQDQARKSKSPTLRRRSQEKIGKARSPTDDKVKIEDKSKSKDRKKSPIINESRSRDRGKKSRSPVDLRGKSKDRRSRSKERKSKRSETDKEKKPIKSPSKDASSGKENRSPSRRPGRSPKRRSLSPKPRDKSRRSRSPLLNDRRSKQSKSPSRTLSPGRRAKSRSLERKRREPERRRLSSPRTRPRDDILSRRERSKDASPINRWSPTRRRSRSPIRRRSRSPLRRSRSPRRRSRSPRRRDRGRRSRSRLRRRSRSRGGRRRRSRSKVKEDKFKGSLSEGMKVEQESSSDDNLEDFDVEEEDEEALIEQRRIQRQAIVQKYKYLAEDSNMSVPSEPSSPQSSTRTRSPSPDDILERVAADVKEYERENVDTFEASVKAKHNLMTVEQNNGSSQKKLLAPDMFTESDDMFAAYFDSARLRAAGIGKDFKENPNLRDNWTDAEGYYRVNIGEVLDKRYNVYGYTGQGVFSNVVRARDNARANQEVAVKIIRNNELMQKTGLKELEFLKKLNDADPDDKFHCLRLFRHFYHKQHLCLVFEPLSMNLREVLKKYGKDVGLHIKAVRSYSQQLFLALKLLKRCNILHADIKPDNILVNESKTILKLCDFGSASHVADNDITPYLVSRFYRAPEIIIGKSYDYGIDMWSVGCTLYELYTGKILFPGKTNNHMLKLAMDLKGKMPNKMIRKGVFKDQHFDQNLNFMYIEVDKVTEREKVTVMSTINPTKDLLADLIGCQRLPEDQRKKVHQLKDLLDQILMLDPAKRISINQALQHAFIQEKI
Sequence of Mitogen-activated protein kinase 10 (Homo sapiens) (P53779 whole entry): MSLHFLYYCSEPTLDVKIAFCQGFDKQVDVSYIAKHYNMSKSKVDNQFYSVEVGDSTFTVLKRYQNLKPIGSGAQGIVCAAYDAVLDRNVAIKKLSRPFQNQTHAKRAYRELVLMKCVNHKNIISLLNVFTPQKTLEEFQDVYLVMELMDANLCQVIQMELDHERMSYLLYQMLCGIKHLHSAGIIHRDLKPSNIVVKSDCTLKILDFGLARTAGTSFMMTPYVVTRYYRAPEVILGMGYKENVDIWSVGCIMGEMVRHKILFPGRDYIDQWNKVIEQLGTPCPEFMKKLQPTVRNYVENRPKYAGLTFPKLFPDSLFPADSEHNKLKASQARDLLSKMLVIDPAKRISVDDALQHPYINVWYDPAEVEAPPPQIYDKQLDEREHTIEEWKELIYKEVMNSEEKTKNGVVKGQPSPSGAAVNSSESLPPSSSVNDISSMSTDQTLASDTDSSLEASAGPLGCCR
Sequence of Dual specificity protein kinase CLK1 (Homo sapiens) (P49759 whole entry, looked up, the tested form may be a part): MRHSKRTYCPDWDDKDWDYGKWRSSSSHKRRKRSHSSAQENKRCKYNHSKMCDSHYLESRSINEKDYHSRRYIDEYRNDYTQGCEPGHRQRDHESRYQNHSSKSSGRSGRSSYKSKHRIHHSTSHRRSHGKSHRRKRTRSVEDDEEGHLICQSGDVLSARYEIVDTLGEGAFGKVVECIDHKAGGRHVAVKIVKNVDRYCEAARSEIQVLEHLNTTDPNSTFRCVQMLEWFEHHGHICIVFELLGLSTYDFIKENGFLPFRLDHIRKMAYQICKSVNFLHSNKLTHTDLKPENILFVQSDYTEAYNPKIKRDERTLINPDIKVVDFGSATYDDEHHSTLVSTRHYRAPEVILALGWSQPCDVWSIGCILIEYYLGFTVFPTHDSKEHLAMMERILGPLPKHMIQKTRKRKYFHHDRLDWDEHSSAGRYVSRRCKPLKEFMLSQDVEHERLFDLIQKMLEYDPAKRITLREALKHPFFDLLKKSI
Sequence of Dual specificity mitogen-activated protein kinase kinase 6 (Homo sapiens) (P52564 whole entry, the tested form may be a part): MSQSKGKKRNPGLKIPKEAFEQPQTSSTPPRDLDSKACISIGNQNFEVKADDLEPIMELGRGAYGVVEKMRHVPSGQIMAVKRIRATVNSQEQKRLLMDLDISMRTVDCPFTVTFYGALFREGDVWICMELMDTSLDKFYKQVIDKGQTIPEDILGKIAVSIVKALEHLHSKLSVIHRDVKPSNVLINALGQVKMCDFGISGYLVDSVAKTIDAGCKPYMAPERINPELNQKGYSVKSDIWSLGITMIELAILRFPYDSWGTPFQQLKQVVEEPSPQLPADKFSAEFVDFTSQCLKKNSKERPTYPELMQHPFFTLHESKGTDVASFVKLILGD

One may read the inhibition as the relative decrease from the control value, in per cent. A word on the half-life: it is the time needed for the level to fall by half in the phase considered. Consider `CS(=O)(=O)c1ccc(-n2nc(-c3cnc4[nH]ccc4c3)c3c(N)ncnc32)cc1`, for which the inhibition is 12% in [1]; -6% in data set [2]; -9% in data set [3]; -1% in data set [4]; 5% in [5]; 37% in [6]. In addition, the inhibition in data set [7] is 4%; in [8], 59%; in data set [9], 10%; in data set [10] it was 13%; in data set [11] it was 5%; in [12], 17%. For the same molecule, the inhibition in data set [13] was -9%; in [14] it was 8%; in data set [15], 1%; in [16], 70%; in data set [17], -4%; in data set [19], -6%. For the same molecule, the inhibition was -6% in [20]; -7% in data set [21]; 1% in data set [22]; 11% in [23]; -6% in [24]. In addition, the half-life in data set [18] was 2.28 h.
